Results on five molecules are retold here after PMC11302339, “A series of pyrimidine-based antifungals with anti-mold activity disrupt ER function in Aspergillus fumigatus” (Microbiology Spectrum, 2024).

Assay [1] concerns A. fumigatus UPR-responsive genes. The assay is described as follows: A. fumigatus UPR gene expression (qRT-PCR). The assay is classed as cell-based, Aspergillus fumigatus. To be noted: single agent (16 µg/mL 1, or 1 mM DTT for 1 hour); normalized to DMSO. How it is done:
We cultured 5 × 10^6 CEA10 conidia/mL in liquid GMM for 18 hours at 37°C with shaking at 250 rpm. Cultures were treated with either DMSO or 16 µg/mL 1 for 2 hours at 37°C, 250 rpm. Then 1 mM DTT or water was added, and cultures were incubated for an additional hour. Mycelia were collected with vacuum filtration and immediately frozen with liquid nitrogen. Tissue was lyophilized then ground with glass beads with a bead beater. RNA was extracted in 1 mL of TRIazole solution (Life Technologies, Cat # 15596026), then RNA was purified with two rounds of chloroform extraction. Five micrograms of RNA was treated with TURBO DNA-free kit (Invitrogen, Cat # AM1907) according to the manufacturer’s protocol. Five hundred nanograms of DNAse-treated RNA was used for cDNA synthesis with iScript cDNA synthesis kit (BioRad, Cat # 1708891), then cDNA was diluted 1:5 with ddH2O. Quantitative real time PCR analysis was performed in 20 µL reactions using 2 µL of dilute cDNA per reaction with iQ SYBR Green Supermix (BioRad). Samples were run on a BioRad CFX Connect using a three-step amplification with 54°C annealing temperature and melt curve analysis. Gene expression is normalized to tubA and tef1 expression. Gene expression was performed in biological triplicate. Primers to detect HacA splicing and targets were designed as previously described ([51]).

In the next assay the test system is A. fumigatus. Briefly: MIC testing (CLSI broth dilution). The assay is classed as cell-based. Conditions: Aspergillus fumigatus, 48 h, strain CEA10; CLSI conditions, 48 h; read-out: MIC. How it is done:
(§1) MICs were determined using Clinical and Laboratory Standards Institute guidelines ([48], [49]). All yeasts were cultured overnight in 3 mL YPD at 30°C, then washed twice in sterile phosphate-buffered saline (PBS). Twofold serial dilutions of each drug were prepared in RMPI + MOPS, then 1 × 10^3 cells were added per well. For mold species, wells were inoculated with 1.25 × 10^3 conidia per well. Plates were incubated at 37°C for 24 (Candida spp. and S. cerevisiae), 48 (Aspergillus spp., M. circinelloides, S. apiospermum, and L. prolificans), or 72 (C. neoformans and F. oxysporum) hours. S. cerevisiae BY4743 MICs were tested in YPD due to nutritional requirements of this strain. Each assay was performed in technical duplicate in at least two independent experiments performed on different days.
Background: Dilution methods test growth across graded concentrations, often in twofold steps.

Another assay concerns C. neoformans. Briefly: MIC testing (CLSI broth dilution). The format is cell-based. Conditions: Cryptococcus neoformans, 72 h, strain H99; CLSI conditions. How it is done:
as §1

Assay [2] relates to A. fumigatus collagenase secretion. Briefly: Detection of secreted collagenase by azocoll. The assay is classed as cell-based, Aspergillus fumigatus. Conditions: treated with 1/2 MIC of each compound. How it is done: 1 × 10^6 CEA10 conidia/mL were cultured in 25 mL liquid GMM for 18 hours, then mycelia were washed with sterile ddH2O and transferred to 10% FBS-MM and treated with DMSO or the indicated concentration of drugs. Cultures were incubated at 37°C, 250 rpm, for an additional 24 hours, then the supernatant and biomass were collected. One milliliter of supernatant was spun at top speed for 5 min. Azocoll of <50 mesh (Sigma, Cat # 194932) was washed in buffer (50 mM Tris, pH 7.5, 1 mM NaCl, and 0.01% sodium azide) then resuspended to 5 mg/mL. Fifteen microliters of culture supernatant was added to the 2 mL azocoll solution and incubated at 37°C with shaking at 300 rpm for 3 hours in the dark. Reactions were spun at maximum speed for 3 min; 200 µL of supernatant was then transferred to a 96-well plate; and Abs 520 was measured. Biomass was lyophilized, and absorbance readings were normalized to milligram tissue. Data represent the mean and SEM of biological triplicates with technical duplicates except for compounds 5 and 7, which are biological duplicates due to the limited availability of the drug and the required culture size for this assay.

The test system of the next assay is A. fumigatus biofilms. Briefly: A. fumigatus hyphal (biofilm) activity, resazurin. Conditions: conidia germinated 14 hours, escalating doses 24 hours. The assay is classed as cell-based, Aspergillus fumigatus. How it is done:
To determine antifungal activity against A. fumigatus hyphae, a 96-well plate was inoculated with 1 × 10^3 conidia per well in 100 µL RPMI + MOPS with the edge wells filled with 200 µL sterile water to minimize edge effects. Plates were incubated at 37°C for 14 hours. A twofold dilution series of 1 or 7 was prepared in RPMI + MOPS at 2× concentration with 0.002% resazurin, then 100 µL of the drug was added to wells, and plates were incubated for an additional 24 hours. Fluorescence was measured with an excitation wavelength of 570 nm and an emission wavelength of 615 nm. Data are representative of two independent experiments performed in biological triplicate.

Converted amounts (≈) assume the structure as drawn. Where only a bound is given, the exact number is not on record here.

As for `O[C@@H](CS)[C@@H](O)CS` (racemic) [DTT, 1,4-dithiothreitol, reference compound], in assay [1], the “increase in BipA expression” value is given as 5 fold, the “increase in PdiA expression” value is 2 fold and the “increase of spliced HacA (HacA^A)” value is on record as ~ 1.5 fold.
Take `OC1CC(c2cc(N3CCC(CCN4CCCC4)CC3)ncn2)C1` (centres unmarked) [compound 4]: the MIC in the assay with A. fumigatus was greater than 128 µg/mL; with C. neoformans, 128 µg/mL (≈ 387 µM).
Consider `COC1CCN(c2cc(C3CC(O)C3)ncn2)CC1` (centres unmarked) [compound 6], for which the MIC in the assay with A. fumigatus and with C. neoformans was greater than 128 µg/mL in each case.
With `OC1CC(c2cc(N3CCC(Cc4ccc(F)cc4)CC3)ncn2)C1` (centres unmarked) [compound 3], the MIC in the assay with A. fumigatus worked out at 64 µg/mL (≈ 187 µM); against C. neoformans, 4 µg/mL (≈ 11.7 µM). In assay [2], the collagenase secretion result is listed as “inhibition of collagenase secretion was similar”.
For the molecule `OC1CC(c2cc(NCC3CCN(CCc4ccccc4)CC3)ncn2)C1` (centres unmarked) [compound 7], in the assay with A. fumigatus biofilms, the “inhibition of hyphal growth” value is listed as “did not show inhibitory activity”. In addition, the MIC in the assay on A. fumigatus and with C. neoformans was greater than 128 µg/mL each time. In assay [2], the collagenase secretion result was “modest but insignificant effect”.

A word on the MIC: it is the lowest concentration found to suppress growth.
